Results published in patent US11414425B2 (priority 2018, dated 2022).

Assays:
[1] = biological target: α5β3γ2 GABAA receptors (Homo sapiens, UniProt P18507+P31644); experiment: [3H]Ro15-1788 binding, membranes of Ltk cells stably expressing α5β3γ2 GABAA receptors; settings: ranges; inhibition of [3H]Ro15-1788 binding
[2] = biological target: T1, GABAA receptors (α5β2γ2) (Homo sapiens, UniProt P18507+P31644); experiment: Positive allosteric modulator activity: potentiation of EC20 GABA current in oocytes; type: cell-based; settings: read-out: GABA α5 Functional Data (potentiation of EC20 GABA); @ 100 nM; ranges
T1 construct: expressed in transfected cells
T1 sequence (P31644 32-462): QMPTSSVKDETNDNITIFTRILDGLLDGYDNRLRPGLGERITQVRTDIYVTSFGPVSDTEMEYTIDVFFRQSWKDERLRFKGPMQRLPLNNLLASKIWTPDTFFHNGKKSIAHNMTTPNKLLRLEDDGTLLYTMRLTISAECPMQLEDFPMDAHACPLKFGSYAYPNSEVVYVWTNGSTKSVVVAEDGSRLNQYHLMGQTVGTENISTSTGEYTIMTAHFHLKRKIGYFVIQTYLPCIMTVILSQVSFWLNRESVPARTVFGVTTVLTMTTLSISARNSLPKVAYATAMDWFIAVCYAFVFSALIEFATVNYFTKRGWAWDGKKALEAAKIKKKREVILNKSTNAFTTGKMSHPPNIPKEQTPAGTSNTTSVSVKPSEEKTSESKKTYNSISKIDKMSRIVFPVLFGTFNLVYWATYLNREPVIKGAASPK
T1 sequence (P47870 25-512, further chain): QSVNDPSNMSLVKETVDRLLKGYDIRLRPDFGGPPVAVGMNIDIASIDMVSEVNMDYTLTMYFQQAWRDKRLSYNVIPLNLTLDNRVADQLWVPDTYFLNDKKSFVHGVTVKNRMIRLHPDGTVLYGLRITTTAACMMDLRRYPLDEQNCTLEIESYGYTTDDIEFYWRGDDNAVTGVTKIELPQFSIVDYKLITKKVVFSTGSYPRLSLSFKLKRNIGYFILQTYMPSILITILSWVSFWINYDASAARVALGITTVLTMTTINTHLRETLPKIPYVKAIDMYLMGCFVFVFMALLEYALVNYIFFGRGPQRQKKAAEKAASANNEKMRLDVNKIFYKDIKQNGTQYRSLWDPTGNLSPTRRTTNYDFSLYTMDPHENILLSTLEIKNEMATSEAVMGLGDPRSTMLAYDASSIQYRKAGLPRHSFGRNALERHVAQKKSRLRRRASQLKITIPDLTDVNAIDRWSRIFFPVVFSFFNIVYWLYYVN
T1 sequence (P18507 40-475): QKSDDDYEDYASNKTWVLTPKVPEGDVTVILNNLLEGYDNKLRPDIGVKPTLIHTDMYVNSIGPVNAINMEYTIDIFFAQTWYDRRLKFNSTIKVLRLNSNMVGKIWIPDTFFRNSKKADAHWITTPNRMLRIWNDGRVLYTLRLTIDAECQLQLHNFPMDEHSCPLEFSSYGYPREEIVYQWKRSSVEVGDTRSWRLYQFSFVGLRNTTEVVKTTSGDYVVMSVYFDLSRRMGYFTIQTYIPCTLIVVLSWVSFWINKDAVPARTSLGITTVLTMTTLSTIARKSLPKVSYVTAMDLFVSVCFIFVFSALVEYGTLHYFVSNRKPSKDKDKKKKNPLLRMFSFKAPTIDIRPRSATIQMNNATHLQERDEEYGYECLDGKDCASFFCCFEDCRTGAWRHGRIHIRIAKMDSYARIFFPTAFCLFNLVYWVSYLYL
Method: On day 1, 1 ng/32 nL of GABAA α5β2γ2 cDNA was injected into one oocyte. Test starts on day 2. The cDNA injected to the oocytes was a mix of alpha, beta and gamma, their ratio is 1:1:10 (by weight) and the total weight of the mixed 3 subunits to be injected in one oocyte was 1 ng in 32 nl volume. The injected oocytes can also be tested on day 3. In such case, the cDNA amount injected to the oocytes should be reduced by 20%.
1). 8 oocytes were placed in 8 chambers of OpusXpress and superfused with Modified Barth's Saline (MBS) at 3 mL/min. Glass electrodes back-filled with 3M KCl (0.5-3 megaohms) were used.
1). New oocytes were used to run new test.
3). […] Oocytes were washed with MBS for 5-10 min.
4). […] Itest was divided by IGABA to obtain potentiation (%).
Test Compounds at Multiple Doses • 1). Repeat the above steps 1), 2) and 3) in the control test. • 2). […] Divide Itest by IGABA to obtain potentiation (%). • 3). Discard all tested oocytes, new oocytes were used and the above steps 1) and 2) were repeated to test second concentration of the same compound. Each oocyte was used for only one concentration test for a single test compound. The steps were repeated for other test compounds.

[3] = biological target: T2, GABAAα5 receptor (Rattus norvegicus, UniProt P18508+P19969); experiment: in vivo; type: in vivo, Long Evans rats; settings: 0.01-10 mg/kg, i.v.
T2 construct: occupancy in the hippocampus (a region of high GABAAα5 receptor density); from tissue; host or cells: rat brain in vivo: hippocampus versus cerebellum
T2 sequence (P19969 32-464): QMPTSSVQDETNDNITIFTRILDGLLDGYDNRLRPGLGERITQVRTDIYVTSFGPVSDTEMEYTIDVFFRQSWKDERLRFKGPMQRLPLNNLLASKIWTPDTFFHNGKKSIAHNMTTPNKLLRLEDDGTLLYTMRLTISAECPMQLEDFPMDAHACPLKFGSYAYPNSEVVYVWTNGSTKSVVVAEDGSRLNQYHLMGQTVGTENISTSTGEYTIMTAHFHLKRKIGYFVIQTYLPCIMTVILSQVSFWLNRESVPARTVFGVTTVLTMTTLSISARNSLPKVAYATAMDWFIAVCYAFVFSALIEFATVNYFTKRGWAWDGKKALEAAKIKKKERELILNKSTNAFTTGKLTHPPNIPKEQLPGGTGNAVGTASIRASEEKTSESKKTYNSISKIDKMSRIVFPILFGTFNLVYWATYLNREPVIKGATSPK
T2 sequence (P18508 39-466): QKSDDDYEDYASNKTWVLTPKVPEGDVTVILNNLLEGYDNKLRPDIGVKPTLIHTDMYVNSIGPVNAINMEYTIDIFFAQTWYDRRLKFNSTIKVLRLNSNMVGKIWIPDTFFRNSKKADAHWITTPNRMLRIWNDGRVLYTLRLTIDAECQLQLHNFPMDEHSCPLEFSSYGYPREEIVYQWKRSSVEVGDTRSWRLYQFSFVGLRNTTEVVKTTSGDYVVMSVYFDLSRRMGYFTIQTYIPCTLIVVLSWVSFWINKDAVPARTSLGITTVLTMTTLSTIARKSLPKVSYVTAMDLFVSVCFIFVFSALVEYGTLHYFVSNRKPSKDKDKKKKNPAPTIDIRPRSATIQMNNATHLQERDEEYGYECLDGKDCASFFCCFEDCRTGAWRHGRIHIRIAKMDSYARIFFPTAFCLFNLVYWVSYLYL
Description: Food and water were available ad libitum.

Sequence of α5β3γ2 GABAA receptors (P31644 32-462): as the sequence (P31644 32-462) above
Sequence of α5β3γ2 GABAA receptors (P28472 26-473 partner): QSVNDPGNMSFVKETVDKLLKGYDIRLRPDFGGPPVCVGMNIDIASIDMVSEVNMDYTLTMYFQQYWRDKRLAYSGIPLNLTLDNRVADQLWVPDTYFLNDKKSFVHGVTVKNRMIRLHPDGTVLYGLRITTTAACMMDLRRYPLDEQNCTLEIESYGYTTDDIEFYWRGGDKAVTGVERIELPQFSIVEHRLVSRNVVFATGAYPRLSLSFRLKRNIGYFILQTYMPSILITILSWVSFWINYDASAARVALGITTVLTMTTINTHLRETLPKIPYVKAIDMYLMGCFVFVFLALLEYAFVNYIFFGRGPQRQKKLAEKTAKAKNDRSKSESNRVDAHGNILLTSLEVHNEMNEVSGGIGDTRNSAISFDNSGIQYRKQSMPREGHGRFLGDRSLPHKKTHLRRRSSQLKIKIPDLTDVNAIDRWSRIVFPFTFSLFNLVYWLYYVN
Sequence of α5β3γ2 GABAA receptors (P18507 40-475): as the sequence (P18507 40-475) above

Structure (SMILES) | Ki [1] [nM] | activation at 0.1 µM [2] [%] | effect on binding of Ro 15-4513 in hippocampus [3] | effect on binding/levels of Ro 15-4513 in cerebellum [3]
COCc1nnc2n1Cc1c(C#Cc3cnc(OC)s3)ncn1-c1ccc(Cl)cc1-2 [Compound 606, 5-((3-chloro-7-(methoxymethyl)-9H-benzo[f]imidazo[1,5-a][1,2,4]triazolo[4,3-d][1,4]diazepin-10-yl)ethynyl)-2-methoxythiazole] | < 100 | 20 to 50 |  | 
COCc1nnc2n1Cc1c(C#Cc3ncc(C)s3)ncn1-c1ccc(Cl)cc1-2 [Compound 607] | < 100 | 20 to 50 |  | 
COCc1nnc2n1Cc1c(C#Cc3cnc(C)s3)ncn1-c1ccc(Cl)cc1-2 [Compound 608] | < 100 | 20 to 50 |  | 
COCc1nnc2n1Cc1c(C#Cc3cc(C)cnn3)ncn1-c1ccc(Cl)cc1-2 [Compound 609] | 100 to 1000 | 20 to 50 |  | 
COCc1nnc2n1Cc1c(C#Cc3cccnc3OC)ncn1-c1ccc(OC)cc1-2 [Compound 615] | < 100 | 20 to 50 |  | 
COc1ccc(C#Cc2ncn3c2Cn2c(COC(F)F)nnc2-c2cc(Cl)ccc2-3)cn1 [Compound 616] | < 100 | 5 to 20 |  | 
COc1ccc2c(c1)-n1nncc1Cc1c(C#Cc3cncc(C)c3)ncn1-2 [Compound 617] | < 100 | 5 to 20 |  | 
Cc1cncc(C#Cc2ncn3c2Cc2cnnn2-c2cc(Cl)ccc2-3)c1 [Compound 618] | < 100 | 20 to 50 |  | 
COCc1nnc2n1Cc1c(C#Cc3cnc(OC)s3)ncn1-c1ccc(OC)cc1-2 [Compound 619] | < 100 | 5 to 20 |  | 
C[C@]1(c2ccccc2)COC(c2ncn3c2Cc2cnnn2-c2cc(Cl)ccc2-3)=N1 [Compound 623] | < 100 | 5 to 20 |  | 
FC(F)(F)c1ccc2c(c1)-n1nncc1Cc1c(C3=NC[C@@H](c4ccccc4)O3)ncn1-2 [Compound 624] | < 100 | 5 to 20 |  | 
Clc1ccc2c(c1)-n1nncc1Cc1c(C3=NCC(c4ccccn4)O3)ncn1-2 (centres unmarked) [Compound 627] | < 100 | 20 to 50 |  | 
COc1ccc2c(c1)-n1nncc1Cc1c(C3=NCC(c4ccccn4)O3)ncn1-2 (centres unmarked) [Compound 628] | < 100 | 20 to 50 |  | 
COc1ccc2c(c1)-n1nncc1Cc1c(C3=NCC(c4ccncc4)O3)ncn1-2 (centres unmarked) [Compound 630] | < 100 | 20 to 50 |  | 
COc1cccc(C2CN=C(c3ncn4c3Cc3cnnn3-c3cc(Cl)ccc3-4)O2)n1 (centres unmarked) [Compound 631] | < 100 | 5 to 20 |  | 
COc1ccc2c(c1)-n1nncc1Cc1c(C3=NCC(c4ncccc4OC)O3)ncn1-2 (centres unmarked) [Compound 632] | < 100 | 5 to 20 |  | 
COCc1nnn2c1Cc1c(C#Cc3ccc(OC)nc3)ncn1-c1ccc(Cl)cc1-2 [Compound 633] | < 100 | 20 to 50 |  | 
COCc1nnn2c1Cc1c(C3=NC[C@H](c4ccc(Cl)cc4)O3)ncn1-c1ccc(Cl)cc1-2 [Compound 635] | < 100 | 5 to 20 |  | 
COCc1nnn2c1Cc1c(C3=NC[C@H](c4ccc(Cl)cc4)O3)ncn1-c1ccc(OC)cc1-2 [Compound 636] | < 100 | 5 to 20 |  | 
COCc1nnn2c1Cc1c(C#Cc3ccc(OC)cn3)ncn1-c1ccc(Cl)cc1-2 [Compound 637] | < 100 | 20 to 50 |  | 
CCc1cncc(C#Cc2ncn3c2Cc2c(COC)nnn2-c2cc(Cl)ccc2-3)c1 [Compound 638] | < 100 | > 50 |  | 
COCc1nnn2c1Cc1c(C#Cc3cncc(C)c3)ncn1-c1ccc(Cl)cc1-2 [Compound 639] | < 100 | 20 to 50 |  | 
COCc1nnn2c1Cc1c(C#CC(C)(C)C)ncn1-c1ccc(Cl)cc1-2 [Compound 640] | < 100 | 20 to 50 |  | 
COCc1nnn2c1Cc1c(C#Cc3ccc(OC)nc3)ncn1-c1ccc(OC)cc1-2 [Compound 641] | < 100 | 20 to 50 |  | 
COCc1nnn2c1Cc1c(C#Cc3cnc(OC)s3)ncn1-c1ccc(Cl)cc1-2 [Compound 644] | < 100 | 20 to 50 |  | 
COc1ccc2c(c1)-n1nncc1Cc1c(C#Cc3c[nH]nc3OC)ncn1-2 [Compound 663] | < 100 | 20 to 50 |  | 
Cc1ncc(C#Cc2ncn3c2Cc2cnnn2-c2cc(Cl)ccc2-3)n1C [Compound 666] | < 100 | 20 to 50 |  | 
COc1ccc2c(c1)-n1nncc1Cc1c(C#Cc3cnc(C)n3C)ncn1-2 [Compound 667] | < 100 | > 50 |  | 

Structure (SMILES) | Ki [1] [nM] | activation at 0.1 µM [2] [%] | effect on binding of Ro 15-4513 in hippocampus [3] | effect on binding/levels of Ro 15-4513 in cerebellum [3]
COc1ccc2c(c1)-n1nncc1Cc1c(C#Cc3cnc(C)[nH]3)ncn1-2 [Compound 668] | < 100 | > 50 |  | 
COc1ccc2c(c1)-n1nncc1Cc1c(C#Cc3ccnn3C)ncn1-2 [Compound 669] | < 100 | > 50 |  | 
COc1ccc2c(c1)-n1nncc1Cc1c(C#Cc3ccn(C)n3)ncn1-2 [Compound 670] | < 100 | > 50 |  | 
COCc1nnc2n1Cc1c(C#Cc3cnc(C)n3C)ncn1-c1ccc(Cl)cc1-2 [Compound 671] | < 100 | > 50 |  | 
COCc1nnc2n1Cc1c(C#Cc3cnc(C)n3C)ncn1-c1ccc(OC)cc1-2 [Compound 672] | < 100 | > 50 |  | 
COCc1nnc2n1Cc1c(C#Cc3cnc4occc4c3)ncn1-c1ccc(OC)cc1-2 [Compound 674] | < 100 | 5 to 20 |  | 
COCc1nnc2n1Cc1c(C#Cc3ccn4ccnc4c3)ncn1-c1ccc(OC)cc1-2 [Compound 675] | < 100 | > 50 |  | 
COCc1nnc2n1Cc1c(C#Cc3ccc(=O)n(C)c3)ncn1-c1ccc(OC)cc1-2 [Compound 676] | < 100 | 5 to 20 |  | 
COCc1nnc2n1Cc1c(C#Cc3ccc(=O)n(C)c3)ncn1-c1ccc(Cl)cc1-2 [Compound 677] | < 100 | 5 to 20 |  | 
COCc1nnc2n1Cc1c(C#Cc3ccc4nccn4c3)ncn1-c1ccc(Cl)cc1-2 [Compound 678] | < 100 | 20 to 50 |  | 
COCc1nnc2n1Cc1c(C#Cc3ccn4ccnc4c3)ncn1-c1ccc(Cl)cc1-2 [Compound 679] | < 100 | > 50 |  | 
COCc1nnc2n1Cc1c(C#Cc3cnc4occc4c3)ncn1-c1ccc(Cl)cc1-2 [Compound 680] | < 100 | 20 to 50 |  | 
COCc1nnc2n1Cc1c(C#Cc3cnc(C)[nH]3)ncn1-c1ccc(Cl)cc1-2 [Compound 681] | < 100 | > 50 |  | 
COCc1nnc2n1Cc1c(C#Cc3ccnn3C)ncn1-c1ccc(Cl)cc1-2 [Compound 682] | < 100 | > 50 |  | 
COCc1nnc2n1Cc1c(C#Cc3ccn(C)n3)ncn1-c1ccc(Cl)cc1-2 [Compound 683] | < 100 | > 50 |  | 
COCc1nnc2n1Cc1c(C#Cc3cnc(OC)c(C)c3)ncn1-c1ccc(Cl)cc1-2 [Compound 698] | < 100 | 5 to 20 |  | 
FC(F)(F)c1ccc(C#Cc2ncn3c2Cc2cnnn2-c2cc(Cl)ccc2-3)nc1 [Compound 701] | < 100 | 5 to 20 |  | 
COCc1nnc2n1Cc1c(C#Cc3ccc(OC)nc3)ncn1-c1ccc(OC)cc1-2 [Compound 703] | < 100 | 20 to 50 |  | 
COCc1nnc2n1Cc1c(C#Cc3ccc(OC)nn3)ncn1-c1ccc(Cl)cc1-2 [Compound 707] | < 100 | > 50 |  | 
CCOc1ccc(C#Cc2ncn3c2Cn2c(COC)nnc2-c2cc(OC)ccc2-3)cn1 [Compound 710] | < 100 | 5 to 20 |  | 
COCc1nnc2n1Cc1c(C#Cc3ccc(OC(C)C)nc3)ncn1-c1ccc(OC)cc1-2 [Compound 711] | < 100 | 5 to 20 |  | 
COCc1nnc2n1Cc1c(C#Cc3ccc(OC)nn3)ncn1-c1ccc(OC)cc1-2 [Compound 712] | < 100 | > 50 |  | 
COCc1nnc2n1Cc1c(C#Cc3ccc4[nH]ccc4c3)ncn1-c1ccc(OC)cc1-2 [Compound 715] | < 100 | 20 to 50 |  | 
COCc1nnc2n1Cc1c(C#Cc3ccc(C(C)C)cc3)ncn1-c1ccc(OC)cc1-2 [Compound 716] | < 100 | 5 to 20 |  | 
COCc1nnc2n1Cc1c(C3=NC[C@@H](c4ccc(Cl)cc4)O3)ncn1-c1ccc(Cl)cc1-2 [Compound 717] | < 100 | > 50 |  | 
COCc1nnc2n1Cc1c(C3=NC[C@H](c4ccc(Cl)cc4)O3)ncn1-c1ccc(Cl)cc1-2 [Compound 718] | < 100 | 20 to 50 |  | 
CCOC(=O)c1ncn2c1Cn1c(C)nnc1-c1cc(OC)ccc1-2 [Ethyl 3-methoxy-7-methyl-9H-benzo[f]imidazo[1,5-a][1,2,4]tri] |  |  | blocked the binding of Ro154513 in the hippocampus | did not affect binding of Ro15413 in the cerebellum
